Laboratory results from the supplement of paper PMC8612539.

Tested on: Escherichia coli
Assay: minimum inhibitory concentration (MIC)
Experimental: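 Broth microdilution MIC (Sensititre BOPO7F bovine plate, CLSI methods) of 19 antimicrobials against field isolates of P. multocida, M. haemolytica, H. somni (deep nasopharyngeal swabs) and E. coli, Enterococcus spp. (rectal swabs) from weaned dairy heifers. Incubation 16-24 h at 35 C. MIC is the lowest concentration preventing visible growth. Values with <= or > lie at the tested range limits. Trimethoprim-sulfamethoxazole is given as the trimethoprim component of a 1:19 mixture.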

COc1cc(Cc2cnc(N)nc2N)cc(OC)c1OC.Cc1cc(NS(=O)(=O)c2ccc(N)cc2)no1 [trimethoprim-sulfamethoxazole]
Details	minimum inhibitory concentration [µg/mL]
isolate (source animal id): 1	≤ 2
isolate (source animal id): 2	> 2
isolate (source animal id): 3	≤ 2
isolate (source animal id): 4	≤ 2
isolate (source animal id): 5	> 2
isolate (source animal id): 6	> 2
isolate (source animal id): 7	> 2
isolate (source animal id): 8	≤ 2
isolate (source animal id): 9	> 2
isolate (source animal id): 10	> 2
isolate (source animal id): 11	≤ 2
isolate (source animal id): 12	> 2
isolate (source animal id): 13	≤ 2
isolate (source animal id): 14	> 2
isolate (source animal id): 15	≤ 2
isolate (source animal id): 16	≤ 2
isolate (source animal id): 17	> 2
isolate (source animal id): 18	≤ 2
isolate (source animal id): 19	≤ 2
isolate (source animal id): 20	> 2
isolate (source animal id): 21	≤ 2
isolate (source animal id): 22	≤ 2
isolate (source animal id): 23	≤ 2
isolate (source animal id): 24	≤ 2
isolate (source animal id): 25	> 2
isolate (source animal id): 26	≤ 2
isolate (source animal id): 27	> 2
isolate (source animal id): 28	≤ 2
isolate (source animal id): 29	> 2
isolate (source animal id): 30	> 2
isolate (source animal id): 31	> 2
isolate (source animal id): 32	> 2
isolate (source animal id): 33	> 2
isolate (source animal id): 34	≤ 2
isolate (source animal id): 35	> 2
isolate (source animal id): 36	> 2
isolate (source animal id): 37	> 2
isolate (source animal id): 38	> 2
isolate (source animal id): 39	> 2
isolate (source animal id): 40	≤ 2
isolate (source animal id): 41	> 2
isolate (source animal id): 42	> 2
isolate (source animal id): 43	> 2
isolate (source animal id): 44	≤ 2
isolate (source animal id): 45	> 2
isolate (source animal id): 46	≤ 2
isolate (source animal id): 47	> 2
isolate (source animal id): 48	> 2
isolate (source animal id): 49	> 2
isolate (source animal id): 50	> 2
isolate (source animal id): 51	> 2
isolate (source animal id): 52	≤ 2
isolate (source animal id): 53	> 2
isolate (source animal id): 54	≤ 2
isolate (source animal id): 55	≤ 2
isolate (source animal id): 56	≤ 2
isolate (source animal id): 57	> 2
isolate (source animal id): 58	≤ 2
isolate (source animal id): 59	≤ 2
isolate (source animal id): 60	≤ 2
isolate (source animal id): 61	> 2
isolate (source animal id): 62	≤ 2
isolate (source animal id): 63	≤ 2
isolate (source animal id): 64	≤ 2
isolate (source animal id): 65	> 2
isolate (source animal id): 66	≤ 2
isolate (source animal id): 67	≤ 2
isolate (source animal id): 68	≤ 2
isolate (source animal id): 69	≤ 2
isolate (source animal id): 70	≤ 2
isolate (source animal id): 71	≤ 2
isolate (source animal id): 72	≤ 2
isolate (source animal id): 73	≤ 2
isolate (source animal id): 74	≤ 2
isolate (source animal id): 75	≤ 2
isolate (source animal id): 76	> 2
isolate (source animal id): 77	≤ 2
isolate (source animal id): 78	> 2
isolate (source animal id): 79	≤ 2
isolate (source animal id): 80	≤ 2
isolate (source animal id): 81	> 2
isolate (source animal id): 82	≤ 2
isolate (source animal id): 83	≤ 2
isolate (source animal id): 84	≤ 2
isolate (source animal id): 85	≤ 2
isolate (source animal id): 86	> 2
isolate (source animal id): 87	≤ 2
isolate (source animal id): 88	≤ 2
isolate (source animal id): 89	≤ 2
isolate (source animal id): 90	≤ 2
isolate (source animal id): 91	≤ 2
isolate (source animal id): 92	≤ 2
isolate (source animal id): 93	≤ 2
isolate (source animal id): 94	> 2
isolate (source animal id): 95	≤ 2
isolate (source animal id): 96	≤ 2
isolate (source animal id): 97	> 2
isolate (source animal id): 98	≤ 2
isolate (source animal id): 99	≤ 2
isolate (source animal id): 100	≤ 2
isolate (source animal id): 101	> 2
isolate (source animal id): 102	≤ 2
isolate (source animal id): 103	≤ 2
isolate (source animal id): 104	≤ 2
isolate (source animal id): 105	≤ 2
isolate (source animal id): 106	> 2
isolate (source animal id): 107	≤ 2
isolate (source animal id): 108	≤ 2
isolate (source animal id): 109	≤ 2
isolate (source animal id): 110	≤ 2
isolate (source animal id): 111	≤ 2
isolate (source animal id): 112	≤ 2
isolate (source animal id): 113	≤ 2
isolate (source animal id): 114	≤ 2
isolate (source animal id): 115	> 2
isolate (source animal id): 116	≤ 2
isolate (source animal id): 117	≤ 2
isolate (source animal id): 118	≤ 2
isolate (source animal id): 119	> 2
isolate (source animal id): 120	> 2
isolate (source animal id): 121	> 2
isolate (source animal id): 122	> 2
isolate (source animal id): 123	≤ 2
isolate (source animal id): 124	> 2
isolate (source animal id): 125	≤ 2
isolate (source animal id): 126	> 2
isolate (source animal id): 127	> 2
isolate (source animal id): 128	≤ 2
isolate (source animal id): 129	≤ 2
isolate (source animal id): 130	> 2
isolate (source animal id): 131	≤ 2
isolate (source animal id): 132	≤ 2
isolate (source animal id): 133	≤ 2
isolate (source animal id): 134	≤ 2
isolate (source animal id): 135	≤ 2
isolate (source animal id): 136	≤ 2
isolate (source animal id): 137	≤ 2
isolate (source animal id): 138	> 2
isolate (source animal id): 139	> 2
isolate (source animal id): 140	≤ 2
isolate (source animal id): 141	> 2
isolate (source animal id): 142	≤ 2
isolate (source animal id): 143	> 2
isolate (source animal id): 144	≤ 2
isolate (source animal id): 145	> 2
isolate (source animal id): 146	≤ 2
isolate (source animal id): 147	> 2
isolate (source animal id): 148	≤ 2
isolate (source animal id): 149	≤ 2
isolate (source animal id): 150	> 2
isolate (source animal id): 151	≤ 2
isolate (source animal id): 152	≤ 2
isolate (source animal id): 153	≤ 2
isolate (source animal id): 154	≤ 2
isolate (source animal id): 155	≤ 2
isolate (source animal id): 156	> 2
isolate (source animal id): 157	≤ 2
isolate (source animal id): 158	≤ 2
isolate (source animal id): 159	≤ 2
isolate (source animal id): 160	> 2
isolate (source animal id): 161	> 2
isolate (source animal id): 162	≤ 2
isolate (source animal id): 163	≤ 2
isolate (source animal id): 164	≤ 2
isolate (source animal id): 165	≤ 2
isolate (source animal id): 166	≤ 2
isolate (source animal id): 167	≤ 2
isolate (source animal id): 168	≤ 2
isolate (source animal id): 169	≤ 2
isolate (source animal id): 170	≤ 2
